Laboratory results reported in the NIST ThermoML archive (doi:10.1016/j.fluid.2007.12.007).

Assay: xn = mol fraction of the nth substance listed
Settings: 101 kPa, Liquid

CC(O)CCO (stereo unspecified) [1,3-butanediol] + NC=O
Settings | speed of sound [m/s] | viscosity [mPa·s]
293.15 K, x2 = 0.1061 | 1539 | 99.92
293.15 K, x2 = 0.2004 | 1536.3 | 78.22
293.15 K, x2 = 0.3068 | 1537.2 | 59.74
293.15 K, x2 = 0.4026 | 1538.5 | 46.12
293.15 K, x2 = 0.5033 | 1543.7 | 34.62
293.15 K, x2 = 0.6046 | 1550.4 | 25.02
293.15 K, x2 = 0.7013 | 1561.2 | 17.54
293.15 K, x2 = 0.8073 | 1577.3 | 10.47
293.15 K, x2 = 0.9058 | 1596.6 | 6.546
298.15 K, x2 = 0.1061 | 1521.7 | 74.72
298.15 K, x2 = 0.2004 | 1518.2 | 57.5
298.15 K, x2 = 0.3068 | 1518.3 | 43.1
298.15 K, x2 = 0.4026 | 1519.5 | 32.2
298.15 K, x2 = 0.5033 | 1524.6 | 23.74
298.15 K, x2 = 0.6046 | 1531.3 | 17
298.15 K, x2 = 0.7013 | 1542.5 | 12
298.15 K, x2 = 0.8073 | 1559.5 | 7.526
298.15 K, x2 = 0.9058 | 1580.2 | 5.001
303.15 K, x2 = 0.1061 | 1503.9 | 53.07
303.15 K, x2 = 0.2004 | 1499.8 | 40.31
303.15 K, x2 = 0.3068 | 1499.9 | 28.9
303.15 K, x2 = 0.4026 | 1501.1 | 21.09
303.15 K, x2 = 0.5033 | 1506.5 | 15.04
303.15 K, x2 = 0.6046 | 1513.8 | 10.33
303.15 K, x2 = 0.7013 | 1525.7 | 7.023
303.15 K, x2 = 0.8073 | 1543.8 | 4.543
303.15 K, x2 = 0.9058 | 1566.3 | 3.526
308.15 K, x2 = 0.1061 | 1488.7 | 40.36
308.15 K, x2 = 0.2004 | 1484.2 | 30.96
308.15 K, x2 = 0.3068 | 1483.6 | 21.98
308.15 K, x2 = 0.4026 | 1484.8 | 15.66
308.15 K, x2 = 0.5033 | 1490.1 | 11.25
308.15 K, x2 = 0.6046 | 1497.6 | 7.455
308.15 K, x2 = 0.7013 | 1509.9 | 5.329
308.15 K, x2 = 0.8073 | 1528.7 | 3.578
308.15 K, x2 = 0.9058 | 1552.5 | 2.702
313.15 K, x2 = 0.1061 | 1475.5 | 31.06
313.15 K, x2 = 0.2004 | 1470.2 | 24.23
313.15 K, x2 = 0.3068 | 1468.8 | 17.48
313.15 K, x2 = 0.4026 | 1469.6 | 12.14
313.15 K, x2 = 0.5033 | 1474.7 | 8.414
313.15 K, x2 = 0.6046 | 1482.1 | 6.181
313.15 K, x2 = 0.7013 | 1494.6 | 4.545
313.15 K, x2 = 0.8073 | 1513.9 | 3.229
313.15 K, x2 = 0.9058 | 1538.9 | 2.626
318.15 K, x2 = 0.1061 | 1463.3 | 24.04
318.15 K, x2 = 0.2004 | 1457 | 18.62
318.15 K, x2 = 0.3068 | 1454.8 | 13.82
318.15 K, x2 = 0.4026 | 1455.1 | 9.999
318.15 K, x2 = 0.5033 | 1459.9 | 6.803
318.15 K, x2 = 0.6046 | 1467.1 | 4.697
318.15 K, x2 = 0.7013 | 1479.7 | 3.299
318.15 K, x2 = 0.8073 | 1499.4 | 2.478
318.15 K, x2 = 0.9058 | 1525.5 | 2.257

NC=O [formamide] + CCC(C)O
Settings | speed of sound [m/s] | viscosity [mPa·s]
293.15 K, x1 = 0.1043 | 1264.1 | 4.14
293.15 K, x1 = 0.2043 | 1295.8 | 4.08
293.15 K, x1 = 0.3056 | 1329.1 | 4.046
293.15 K, x1 = 0.4083 | 1364.5 | 4.041
293.15 K, x1 = 0.5093 | 1401.3 | 4.026
293.15 K, x1 = 0.6063 | 1438.8 | 3.99
293.15 K, x1 = 0.7068 | 1480.1 | 3.929
293.15 K, x1 = 0.8042 | 1522.5 | 3.859
293.15 K, x1 = 0.9024 | 1568 | 3.77
298.15 K, x1 = 0.1043 | 1243.5 | 3.044
298.15 K, x1 = 0.2043 | 1274.8 | 3.064
298.15 K, x1 = 0.3056 | 1308 | 3.113
298.15 K, x1 = 0.4083 | 1343.4 | 3.19
298.15 K, x1 = 0.5093 | 1380.4 | 3.261
298.15 K, x1 = 0.6063 | 1418.1 | 3.31
298.15 K, x1 = 0.7068 | 1459.9 | 3.338
298.15 K, x1 = 0.8042 | 1503.4 | 3.351
298.15 K, x1 = 0.9024 | 1550.5 | 3.348
303.15 K, x1 = 0.1043 | 1225 | 2.516
303.15 K, x1 = 0.2043 | 1256.1 | 2.551
303.15 K, x1 = 0.3056 | 1289.2 | 2.617
303.15 K, x1 = 0.4083 | 1324.7 | 2.713
303.15 K, x1 = 0.5093 | 1361.9 | 2.8
303.15 K, x1 = 0.6063 | 1400 | 2.869
303.15 K, x1 = 0.7068 | 1442.6 | 2.918
303.15 K, x1 = 0.8042 | 1487.3 | 2.949
303.15 K, x1 = 0.9024 | 1536 | 2.966
308.15 K, x1 = 0.1043 | 1204.5 | 2.126
308.15 K, x1 = 0.2043 | 1235.7 | 2.167
308.15 K, x1 = 0.3056 | 1268.9 | 2.239
308.15 K, x1 = 0.4083 | 1304.5 | 2.339
308.15 K, x1 = 0.5093 | 1341.9 | 2.435
308.15 K, x1 = 0.6063 | 1380.6 | 2.512
308.15 K, x1 = 0.7068 | 1424.4 | 2.571
308.15 K, x1 = 0.8042 | 1470.5 | 2.611
308.15 K, x1 = 0.9024 | 1521 | 2.639
313.15 K, x1 = 0.1043 | 1185.6 | 1.802
313.15 K, x1 = 0.2043 | 1216.2 | 1.848
313.15 K, x1 = 0.3056 | 1249.3 | 1.927
313.15 K, x1 = 0.4083 | 1285.3 | 2.035
313.15 K, x1 = 0.5093 | 1323.1 | 2.138
313.15 K, x1 = 0.6063 | 1362.1 | 2.224
313.15 K, x1 = 0.7068 | 1406.8 | 2.291
313.15 K, x1 = 0.8042 | 1453.9 | 2.338
313.15 K, x1 = 0.9024 | 1506.1 | 2.375
318.15 K, x1 = 0.1043 | 1167.6 | 1.543
318.15 K, x1 = 0.2043 | 1197.6 | 1.593
318.15 K, x1 = 0.3056 | 1230.7 | 1.677
318.15 K, x1 = 0.4083 | 1266.9 | 1.791
318.15 K, x1 = 0.5093 | 1305 | 1.903
318.15 K, x1 = 0.6063 | 1344.2 | 1.998
318.15 K, x1 = 0.7068 | 1389.5 | 2.072
318.15 K, x1 = 0.8042 | 1437.6 | 2.129
318.15 K, x1 = 0.9024 | 1491.3 | 2.175
